Results taken from patent US5212202A, “Therapeutic cholesterol gallstone dissolution method” (priority 1992, dated 1993).
Read-outs that look alike come from different tables or passages of the source.

Legend:
[1] = in words; cited from earlier work
[2] = in words; cited from earlier work; remark: listed apart in the source
[3] = cited from earlier work
[4] = in vitro dissolution of fresh human cholesterol gallstones in a model gallbladder at high flow rate (Table I); conditions: for Dissolution Rate / Dissolution Time: high flow rate; for Dissolution Rate: stone taken as 90% by weight cholesterol; for dissolution of cholesterol gallstones compared with MTBE: in words; for Dissolution Time: total dissolution, one stone of 132-175 mg per solvent
Experimental: Their efficacy and the techniques of the present invention may be seen from the following data. In the tests described in Table I below, fresh human faceted cholesterol gallstones (kept in distilled water) were dissolved in vitro and the times were recorded for the total dissolution, using a model gallbladder at a high flow rate achieved by a metering pump. "High flow rate" as used herein will mean rates of flow in the range which can be anticipated to result in fluid turbulence for the solvent in the region of the biliary tract surrounding the calculi (gallstones). While "high" rates will vary according to solvent type and viscosity and with individual patients, it will be expected that appropriate flow rates will be at least about 20 ml/min, preferably at least about 100 ml/min, and more preferably at least about 150 ml/min. For comparison purposes a parallel test with MTBE is also shown.

[5] = in vitro dissolution of matched cholesterol gallstones from cholecystectomy patients, 30 ml polyethylene bag model gallbladder, 180 ml/min (Table II); parameters: species or system human; conditions: five stones per set; for Mean Time (complete dissolution): mean stone weight 79-340 mg, 150 ml solvent
[6] = treatment of a human patient with gallstones by solvent perfusion; assay type: in vivo
Excerpt: Another aspect of the invention is the in vivo dissolution of gallstones using the C5 -C6 ester solvents provided herein as the solvent in a high flow rate pumping system, in particular a continuous pumping system controlled by gallbladder pressure feedback and employing a delivery system consisting of a catheter, a continuous flow pumping system, a controller and a tubing set; see aforesaid U.S. patent application No. 07/482,194, filed Feb. 20, 1990, to S. Zakko, incorporated herein by reference.
Such a pumping system, in combination with the low viscosity solvent provided herein, has the capability of emptying the gallbladder many times faster than the rate of normal gallbladder contraction, to prevent solvent from emptying into the intestine should such a gallbladder contraction occur during perfusion. […]
Further, should the pressure remain above (as may occur with the beginning of a gallbladder contraction) or below the upper and lower pressure limits in excess of empirically determined delays, or above or below the upper and lower pressure alarms, for the associated delays, the controller causes the system to enter into an alarm mode in which both pumps operate in the aspiration direction at maximum flow rate to remove the low viscosity solvent.

[7] = perfusion of the gallbladder of an anesthetized pig, solvent level in central venous blood by gas chromatography
[8] = cited from earlier work; remark: listed apart in the source

CCCCCCCC(=O)OCC(O)CO (stereo not shown) [Monooctanoin, monooctanoin]
gallstone dissolution speed [1]: dissolves gallstones very slowly
viscosity [2]: relatively high viscosity

CCOCC [diethyl ether, reference compound]
Boiling point relative to body temperature ([3]; in words): below body temperature

CCOC(=O)C(C)C [ethyl isobutyrate]
Dissolution Rate [4]: 8 mg/min
dissolution of cholesterol gallstones compared with MTBE [4]: rate generally comparable to that of MTBE
Dissolution Time [4]: 15 min
Overall Rate (dissolution) [5]: 4.55 mg/min
Mean Time (complete dissolution) [5]: 33 min
Boiling Point ([3]; Table I): 112 °C

CCOC(=O)CC [ethyl propionate]
Dissolution Rate [4]: 13 mg/min
dissolution of cholesterol gallstones compared with MTBE [4]: rate generally comparable to that of MTBE
Dissolution Time [4]: 10 min
Overall Rate (dissolution) [5]: 12.22 mg/min
Mean Time (complete dissolution) [5]: 14 min
cholesterol concentration in the solvent during the procedure, versus previous procedures using MTBE ([6]; human patient): higher than concentrations observed during previous procedures conducted using MTBE
treatment of a human patient to eliminate cholesterol gallstones ([6]; one human patient): successful treatment
Boiling Point ([3]; Table I): 99 °C
blood level of solvent throughout the procedure ([7]; before, 1 h and 2 h of perfusion, 30 and 60 min after): below the level of detectability

CC(=O)OC(C)C [isopropyl acetate]
Dissolution Rate [4]: 9 mg/min
dissolution of cholesterol gallstones compared with MTBE [4]: rate generally comparable to that of MTBE
Dissolution Time [4]: 14 min
Overall Rate (dissolution) [5]: 5.48 mg/min
Mean Time (complete dissolution) [5]: 26 min
Boiling Point ([3]; Table I): 89 °C

COC(C)(C)C [methyl t-butyl ether]
Dissolution Rate [4]: 20 mg/min
Dissolution Time [4]: 8 min
Overall Rate (dissolution) [5]: 7.69 mg/min
Mean Time (complete dissolution) [5]: 19 min
side effects in patients ([8]; believed caused by increased blood levels of MTBE): nausea and vomiting
systemic toxicity, pain and intestinal damage on escape into the small intestine ([8]; escape from gallbladder into small intestine): signs of systemic toxicity (sedation), pain and by endoscopy, damage to the epithelium of the small intestine
effect of entry into the blood stream ([8]; in vivo): hemolysis
renal failure ([8]; reversible): one
Boiling Point ([3]; Table I): 55 °C
Boiling Point [3]: 55 °C
blood level of solvent during perfusion ([7]; 10 ml, 2 h gallbladder perfusion, central vein): 0.01-0.1 μl/ml
concentration ([7]; read-out: blood level of solvent during perfusion, 10 ml, 2 h gallbladder perfusion, central vein): 84 to 840 µM
blood level of solvent after perfusion ([7]; thirty and sixty minutes following perfusion): declined after perfusion

CCCOC(C)=O [n-propyl acetate]
Dissolution Rate [4]: 14 mg/min
dissolution of cholesterol gallstones compared with MTBE [4]: rate generally comparable to that of MTBE
Dissolution Time [4]: 10 min
Overall Rate (dissolution) [5]: 4.45 mg/min
Mean Time (complete dissolution) [5]: 35 min
Boiling Point ([3]; Table I): 102 °C
